Measured values as given in US20240368150A1 (Hoffmann-La Roche Inc., priority 2021, published 2024).
Counter-ions that a name gives are not always drawn. Like-named read-outs stand apart in the source and are kept apart here.

Legend:
primary human T-cells [1] = system: primary human T-cells
Procedure: As readouts for T-cell activation, IL2 secretion after 24 hours and proliferation after 5 days was measured. Increases in IL2 secretion and proliferation upon compound treatment were assessed as the % of the maximum of reference compound A1. […] As a counter screen and to make sure that no unwanted TCR-independent activation was triggered, PBS conditions were run for all compounds.
For coating of plates, PBS++ with PBS−− or PBS++ with CD3 antibody (concentration depending on donor and determined by CD3 titrations) was added 100 μl/well to Poly-D Lysine coated 96-well plates. Plates were sealed and incubated at room temperature for 3 hours on a table-top rocking platform. After incubation, plates were washed once with PBS−− and filled with 40 μl/well culture medium only. Compounds were then added (see next section) to medium only plates. After 3 hours of culturing the T-cells, cells were filtered through a cell strainer (Miltenyi Biotech, #130-041-407), counted again and concentration was adjusted to 1.25 Mio/ml.
Cells were then seeded 80 μl/well to the 40 μl/well including dispensed compounds according to plate layout. By adding cells, compounds were further diluted 1:3, and resulting in 100 k cells/120 μl/well. After 24 hours 40 μl of supernatant was collected carefully from the top while not disturbing the cells and transferred into a round bottom 96 well plate. Collected and frozen supernatant was used for detection of IL2 using the IL-2 Human ProQuantum Immunoassay Kit (Invitrogen) or using the Human IL-2 ELISA Kit (Thermo Fisher).
Compounds were added in a 5 or 6pt dose response with the Tecan D300e Digital Dispenser, all conditions 3 times more concentrated than the end-concentration, since cells are added afterwards (80 μl cells to 40 μl prepared medium with treatment). The DR was starting at 20 μM or 10 μM final top concentration and a dilution factor of 3.333. The positive control was the reference compound A1 that was added in a dose response as well, additionally to 3 wells of only 20 μM representing the positive stimulator control. All wells were normalized with DMSO to a final concentration of 0.6% (0.2% end-concentration).
The immunoassay is done following the manufacturer's manual (Invitrogen, #A35603). Additional information: For the immunoassay, MicroAmp™ EnduraPlate™ Optical 384-Well plates are used. Frozen supernatant is thawed and centrifuged for 5 minutes at 1000×g, both steps at 4° C. After centrifugation, required sample amount is taken from the top, and in a separate LightCycler V-bottom plate (working plate) diluted with assay dilution buffer, dilution factor depending on the PBS or CD3 condition but at least 1:3. IL-2 standard and blanks are prepared in the same V-bottom plate, standard with a range of 0.0128-5000 pg/ml (extended version). After preparation, 5 μl of sample dilutions or standard/blanks are transferred to the optical 384-well plate (assay plate) and the 10 μl reaction protocol is being followed. For measurement, the QuantStudio 12K Flex system is used.
ELISA is done following the manufacturer's manual (Thermo Fisher Scientific, #88-7025-88). Additional information: For the ELISA Nunc MaxiSorp 96 well plates are used. Frozen supernatant is thawed and centrifuged for 5 minutes at 1000×g, both steps at 4° C. After that, required sample amount is taken from the top, and in a separate V-bottom plate diluted with ELISA diluent, dilution factor depending on the PBS or CD3 condition. IL-2 standard and blanks are prepared in the same V-bottom plate. After preparation, 50 μl of sample dilutions and 100 μl of standard or blanks are transferred to the Nunc plates.
CD3 and PBS plates were analysed separately in Genedata Screener using Roche Normalization PCT_POS_CTRL with DMSO set as Neutral Control and 20 μM of the reference compound A1 set as Stimulator Control/100%.
For CD3 conditions EC50 and Emax of the fitted sigmoidal curve were reported.

primary human T-cells [2] = assay: Proliferation assay after 5 days (CellTiter-Glo, CD3 stimulation; PBS counter screen); type: cell-based; settings: T-cell, 120 h, CD3 stimulation; for Emax: 5 days, normalized to reference compound A1 as stimulator control = 100%, DMSO neutral control, read-out: Emax proliferation (% activation); for EC50: primary human T-cells, CellTiter-Glo after 5 days, EC50 of fitted sigmoidal curve, read-out: Tcell Proliferation CD3 EC50
Procedure, shortened: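 Primary human T-cells, with or without CD3 stimulation, exposed to compounds for 5 days; cell number read as ATP by CellTiter-Glo 2.0 luminescence after 45 min equilibration and 15 min reagent incubation at room temperature. Compounds activating unstimulated cells or reducing viability were flagged.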

EC50 (primary human T-cells [1]) | SMILES | Emax (primary human T-cells [2]; Homo sapiens) | EC50 (primary human T-cells [2]; Homo sapiens) | EC50 (primary human T-cells [2])
0.251 µM | N[C@H]1CS(=O)(=O)c2cc(F)c(-c3nnc(N4CC5(CCC5)C4)o3)cc2N(Cc2ccc(Cl)cc2)C1=O [Example 474] | 138% | 0.135 µM | 
0.832 µM | N[C@H]1CS(=O)(=O)c2cc(F)c(-c3nnc(N4CCC5(CC4)COC5)o3)cc2N(Cc2ccc(Cl)cc2)C1=O [Example 478, (3R)-3-amino-5-[(4-chlorophenyl)methyl]-8-fluoro-7-[5-(2-oxa-7-azaspiro[3.5]nonan-7-yl)-1,3,4-oxadiazol-2-yl]-1,1-dioxo-2,3-dihydro-1λ^6,5-benzothiazepin-4-one] | 87% | 1.32 µM | 
< 0.0151 µM | N[C@H]1CS(=O)(=O)c2cc(F)c(-c3nnc(N4CCC(F)(F)CC4)o3)cc2N(Cc2ccc(Cl)cc2)C1=O [Example 480, (3R)-3-amino-5-[(4-chlorophenyl)methyl]-7-[5-(4,4-difluoro-1-piperidyl)-1,3,4-oxadiazol-2-yl]-8-fluoro-1,1-dioxo-2,3-dihydro-1λ^6,5-benzothiazepin-4-one] | 152% | 0.163 µM | 
1.88 µM | N[C@H]1CS(=O)(=O)c2cc(F)c(-c3nnc(NC4CC4)o3)cc2N(Cc2ccc(Cl)cc2)C1=O [Example 481, (3R)-3-amino-5-[(4-chlorophenyl)methyl]-7-[5-(cyclopropylamino)-1,3,4-oxadiazol-2-yl]-8-fluoro-1,1-dioxo-2,3-dihydro-1λ^6,5-benzothiazepin-4-one] | 89% | 3.05 µM | 
2.6 µM | N[C@H]1CS(=O)(=O)c2cc(F)c(-c3nnc(NC4(CCO)CCCCC4)o3)cc2N(Cc2ccc(Cl)cc2)C1=O [Example 483, (3R)-3-amino-5-[(4-chlorophenyl)methyl]-8-fluoro-7-[5-[[l-(2-hydroxyethyl)cyclohexyl]amino]-1,3,4-oxadiazol-2-yl]-1,1-dioxo-2,3-dihydro-1λ^6,5-benzothiazepin-4-one] | 79% | 1.54 µM | 
6.69 µM | CC(C)(C#N)Nc1nnc(-c2cc3c(cc2F)S(=O)(=O)C[C@H](N)C(=O)N3Cc2ccc(Cl)cc2)o1 [Example 486, 2-methyl-2-[[5-[(3R)-3-amino-5-[(4-chlorophenyl)methyl]-8-fluoro-1,1,4-trioxo-2,3-dihydro-1λ^6,5-benzothiazepin-7-yl]-1,3,4-oxadiazol-2-yl]amino]propanenitrile] | 106% | 2.68 µM | 
8.6 µM | N[C@H]1CS(=O)(=O)c2cc(F)c(-c3nnc(NCC(F)(F)F)o3)cc2N(Cc2ccc(Cl)cc2)C1=O [Example 487, (3R)-3-amino-5-[(4-chlorophenyl)methyl]-8-fluoro-1,1-dioxo-7-[5-(2,2,2-trifluoroethylamino)-1,3,4-oxadiazol-2-yl]-2,3-dihydro-1λ^6,5-benzothiazepin-4-one] | 112% | 1.19 µM | 
4.06 µM | N[C@H]1CS(=O)(=O)c2cc(F)c(-c3nnc(NC4CNCC(F)(F)C4)o3)cc2N(Cc2ccc(Cl)cc2)C1=O (stereo partly drawn) [Example 489, (3R)-3-amino-5-[(4-chlorophenyl)methyl]-7-[5-[(5,5-difluoro-3-piperidyl)amino]-1,3,4-oxadiazol-2-yl]-8-fluoro-1,1-dioxo-2,3-dihydro-1λ^6,5-benzothiazepin-4-one] | 55% | 7.24 µM | 
1.72 µM | C#CC1(Nc2nnc(-c3cc4c(cc3F)S(=O)(=O)C[C@H](N)C(=O)N4Cc3ccc(Cl)cc3)o2)CCCCC1 [Example 497, (3R)-3-amino-5-[(4-chlorophenyl)methyl]-7-[5-[(1-ethynylcyclohexyl)amino]-1,3,4-oxadiazol-2-yl]-8-fluoro-1,1-dioxo-2,3-dihydro-1λ^6,5-benzothiazepin-4-one] | 125% | 0.874 µM | 

The remaining lines, values behind:

SMILES | EC50 (primary human T-cells [1]) | Emax (primary human T-cells [2]; Homo sapiens) | EC50 (primary human T-cells [2]; Homo sapiens) | EC50 (primary human T-cells [2])
CC1(C)CN(c2nnc(-c3cc4c(cc3F)S(=O)(=O)C[C@H](N)C(=O)N4Cc3ccc(Cl)cc3)o2)CCO1 [Example 473, (3R)-3-amino-5-[(4-chlorophenyl)methyl]-7-[5-(2,2-dimethylmorpholin-4-yl)-1,3,4-oxadiazol-2-yl]-8-fluoro-1,1-dioxo-2,3-dihydro-1λ^6,5-benzothiazepin-4-one] | 2.61 µM | 126% | 0.403 µM | 
N[C@H]1CS(=O)(=O)c2cc(F)c(-c3nnc(N4CCC5(CC4)CC(F)(F)CN5)o3)cc2N(Cc2ccc(Cl)cc2)C1=O [Example 475, (3R)-3-amino-5-[(4-chlorophenyl)methyl]-7-[5-(3,3-difluoro-1,8-diazaspiro[4.5]decan-8-yl)-1,3,4-oxadiazol-2-yl]-8-fluoro-1,1-dioxo-2,3-dihydro-1λ^6,5-benzothiazepin-4-one; hydrochloride] | 4.24 µM | 85% | 0.941 µM | 
N[C@H]1CS(=O)(=O)c2cc(F)c(-c3nnc(N4CC5COCC(C4)C5(F)F)o3)cc2N(Cc2ccc(Cl)cc2)C1=O [Example 476, (3R)-3-amino-5-[(4-chlorophenyl)methyl]-7-[5-(9,9-difluoro-3-oxa-7-azabicyclo[3.3.1]nonan-7-yl)-1,3,4-oxadiazol-2-yl]-8-fluoro-1,1-dioxo-2,3-dihydro-1λ^6,5-benzothiazepin-4-one] | 8.68 µM | 95% | 0.455 µM | 
NC1CN(c2nnc(-c3cc4c(cc3F)S(=O)(=O)C[C@H](N)C(=O)N4Cc3ccc(Cl)cc3)o2)CC(F)(F)C1 (stereo partly drawn) [Example 477, (3R)-3-amino-7-[5-(5-amino-3,3-difluoro-1-piperidyl)-1,3,4-oxadiazol-2-yl]-5-[(4-chlorophenyl)methyl]-8-fluoro-1,1-dioxo-2,3-dihydro-1λ^6.5-benzothiazepin-4-one] | 2.7 µM | 77% | 3.49 µM | 
N[C@H]1CS(=O)(=O)c2cc(F)c(-c3nnc(N4CC5(C4)CC(F)(F)C5)o3)cc2N(Cc2ccc(Cl)cc2)C1=O [Example 479, (3R)-3-amino-5-[(4-chlorophenyl)methyl]-7-[5-(6,6-difluoro-2-azaspiro[3.3]heptan-2-yl)-1,3,4-oxadiazol-2-yl]-8-fluoro-1,1-dioxo-2,3-dihydro-1λ^6,5-benzothiazepin-4-one] | 0.11 µM | 127% | 0.439 µM | 
CC(O)(CNc1nnc(-c2cc3c(cc2F)S(=O)(=O)C[C@H](N)C(=O)N3Cc2ccc(Cl)cc2)o1)C(F)(F)F (stereo partly drawn) [Example 484] | 1.89 µM | 51% | 1.06 µM | 
N[C@H]1CS(=O)(=O)c2cc(F)c(-c3nnc(N4CCC(F)(F)C(CO)C4)o3)cc2N(Cc2ccc(Cl)cc2)C1=O (stereo partly drawn) [Example 485, (3R)-3-amino-5-[(4-chlorophenyl)methyl]-7-[5-[4,4-difluoro-3-(hydroxymethyl)-1-piperidyl]-1,3,4-oxadiazol-2-yl]-8-fluoro-1,1-dioxo-2,3-dihydro-1λ^6,5-benzothiazepin-4-one] | 8.13 µM | 98% | 0.868 µM | 
COC(=O)N1CC(Nc2nnc(-c3cc4c(cc3F)S(=O)(=O)C[C@H](N)C(=O)N4Cc3ccc(Cl)cc3)o2)CC(F)(F)C1 (stereo partly drawn) [Example 490, methyl 3,3-difluoro-5-[[5-[(3R)-3-amino-5-[(4-chlorophenyl)methyl]-8-fluoro-1,1,4-trioxo-2,3-dihydro-1λ^6,5-benzothiazepin-7-yl]-1,3,4-oxadiazol-2-yl]amino]piperidine-1-carboxylate] | 3.76 µM | 72% | 6.05 µM | 
CC1(C)COCCN1c1nnc(-c2cc3c(cc2F)S(=O)(=O)C[C@H](N)C(=O)N3Cc2ccc(Cl)cc2)o1 [Example 491, (3R)-3-amino-5-[(4-chlorophenyl)methyl]-7-[5-(3,3-dimethylmorpholin-4-yl)-1,3,4-oxadiazol-2-yl]-8-fluoro-1,1-dioxo-2,3-dihydro-1λ^6,5-benzothiazepin-4-one] | 0.443 µM | 56% | 0.142 µM | 
N[C@H]1CS(=O)(=O)c2cc(F)c(-c3nnc(NC4CCCN(CC(F)(F)F)C4)o3)cc2N(Cc2ccc(Cl)cc2)C1=O (stereo partly drawn) [Example 492, (3R)-3-amino-5-[(4-chlorophenyl)methyl]-8-fluoro-1,1-dioxo-7-[5-[[1-(2,2,2-trifluoroethyl)-3-piperidyl]amino]-1,3,4-oxadiazol-2-yl]-2,3-dihydro-1λ^6,5-benzothiazepin-4-one] | 0.638 µM | 88% | 0.671 µM | 
CC(Nc1nnc(-c2cc3c(cc2F)S(=O)(=O)C[C@H](N)C(=O)N3Cc2ccc(Cl)cc2)o1)C1CC(F)(F)C1 (stereo partly drawn) [Example 493, (3R)-3-amino-5-[(4-chlorophenyl)methyl]-7-[5-[1-(3,3-difluorocyclobutyl)ethylamino]-1,3,4-oxadiazol-2-yl]-8-fluoro-1,1-dioxo-2,3-dihydro-1λ^6,5-benzothiazepin-4-one] | 1.28 µM | 102% | 0.983 µM | 
CC(C)(CC(F)(F)F)Nc1nnc(-c2cc3c(cc2F)S(=O)(=O)C[C@H](N)C(=O)N3Cc2ccc(Cl)cc2)o1 [Example 494, (3R)-3-amino-5-[(4-chlorophenyl)methyl]-8-fluoro-1,1-dioxo-7-[5-[(3,3,3-trifluoro-1,1-dimethyl-propyl)amino]-1,3,4-oxadiazol-2-yl]-2,3-dihydro-1λ^6.5-benzothiazepin-4-one] | 1.2 µM | 118% | 0.464 µM | 
CC(Nc1nnc(-c2cc3c(cc2F)S(=O)(=O)C[C@H](N)C(=O)N3Cc2ccc(Cl)cc2)o1)C(F)(F)F (stereo partly drawn) [Example 498, (3R)-3-amino-5-[(4-chlorophenyl)methyl]-8-fluoro-1,1-dioxo-7-[5-[(2,2,2-trifluoro-1-methyl-ethyl)amino]-1,3,4-oxadiazol-2-yl]-2,3-dihydro-1λ^6,5-benzothiazepin-4-one] | 0.724 µM | 103% |  | 1.08 µM
